Source: US20120122931A1, “INDOLE DERIVATIVE OR PHARMACEUTICALLY ACCEPTABLE SALT THEREOF” (KISSEI PHARMACEUTICAL CO., LTD., priority 2009, published 2012)
pIC50: −log10 of the molar value. Values joined by “and” are separate entries in the source; they are usually repeats but may differ in a detail not shown here. Identical values can stand only once.

Key:
[1] = test system: sulprostone-induced bladder contraction; experiment: Inhibitory effect of compound on sulprostone-induced bladder contraction; assay type: in vivo; settings: test agent 1.0 mg/kg intravenously, sulprostone 0.3 mg/kg subcutaneously, female SD rats
Experimental: Female SD rats were used. Under urethane anesthesia (1.25 g/kg, administered subcutaneously), a tracheal cannula (Size 8, HIBIKI) and a femoral vein cannula for administration (23G needle-equipped PESO) were inserted thereinto. The bladder cannula (PESO) was inserted from the bladder apex. The bladder cannula was connected to a three-way stopcock, and then, one was connected to a pressure transducer and the other was connected to a syringe filled with saline. Saline was injected to the bladder at an injection rate of 3.6 mL/hour and the bladder contraction pressure was recorded at the time of injection with a recorder (RECTI-HORITZ-8K, NEC Corporation). After 10 minutes from stabilization of the bladder contraction pressure during urination, sulprostone was administered subcutaneously (0.3 mg/kg). Then, at the time point when the bladder contraction pressure became constant, a test agent was administered intravenously (1.0 mg/kg). An average bladder contraction pressure during the 10 minutes period before administration of sulprostone was taken as a baseline (0%). Further, an average bladder contraction pressure during the 10 minutes period before administration of the test agent was taken as a maximum bladder contraction pressure (100%). […] The ratio of this measured value to the maximum bladder contraction pressure was calculated by the following equation and taken as an average bladder contraction rate after administration of the test agent: (Average Bladder Contraction Rate after Administration of Test Agent (%))=(Average Bladder Contraction Pressure after Administration of Test Agent)/(Maximum Bladder Contraction Pressure). In addition, the difference between the maximum bladder contraction rate (100%) and the average bladder contraction rate (%) after administration of the test agent was calculated by the following equation and taken as a bladder contraction inhibition rate of the test agent: (Bladder Contraction Inhibition Rate)=100%−(Average Bladder Contraction Rate after Administration of Test Agent (%)).

[2] = molecular target: T1, rat EP1 receptor (Rattus norvegicus, UniProt P70597); experiment: Test for confirmation of EP1 receptor antagonism: inhibition of prostaglandin E2-induced increase in intracellular calcium concentration (Method A or Method B); assay type: cell-based; settings: rat EP1 receptor-expressing cells, prostaglandin E2 10 nM
T1 construct: expressed in transfected cells; host or cells: COS-1 cells, transient transfection with Lipofectamine 2000
T1 sequence (P70597 1-405): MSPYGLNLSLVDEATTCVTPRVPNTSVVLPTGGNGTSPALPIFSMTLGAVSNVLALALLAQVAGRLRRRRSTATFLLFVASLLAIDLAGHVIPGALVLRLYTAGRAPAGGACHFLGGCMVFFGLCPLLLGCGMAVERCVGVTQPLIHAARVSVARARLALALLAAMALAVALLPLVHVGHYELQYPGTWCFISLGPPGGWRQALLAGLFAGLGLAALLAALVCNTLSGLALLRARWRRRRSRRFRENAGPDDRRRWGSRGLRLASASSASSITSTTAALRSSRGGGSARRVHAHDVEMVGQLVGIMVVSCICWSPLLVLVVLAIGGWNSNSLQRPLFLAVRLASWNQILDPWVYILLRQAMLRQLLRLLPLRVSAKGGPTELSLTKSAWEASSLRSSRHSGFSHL
Experimental: (1) Preparation of Rat EP1 Expression vector
Using Rat Kidney BD Marathon-Ready cDNA (Nippon Becton Dickinson Company, Ltd.) as a template, a forward primer shown in SEQ ID NO. 1, and a reverse primer shown in SEQ ID NO. 2, a first run of PCR was carried out using KOD-Plus-Ver 2.0 (Toyobo Co., Ltd.). Further, using this amplification product as a template, a forward primer shown in SEQ ID NO. 3, and a reverse primer shown in SEQ ID NO. 4, a second run of PCR was carried out in the same manner. The amplification product obtained by the second run of PCR was incorporated into a vector (pcDNA3.1 D/V5-His-TOPO (registered trademark), Invitrogen Japan K. K.). By a conventional method, the vector containing this amplification product was introduced to E. coli (One Shot TOP10 Competent Cells, Invitrogen Corporation) to transform. This transformed E. coli was cultured in an LB agar medium for one day. After the culture, colonies were selected and cultured in an LB liquid medium containing 50 μg/mL of ampicillin. After the culture, the vector was purified using a QIAprep Spin Miniprep Kit (Qiagen K. K.). The base sequence of the insertion site of this vector (SEQ ID NO. 5) was compared with the rat EP1 base sequence (Ptger1) registered as an accession number NM_013100 in well-known database (NCBI), and as a result, they all matched except for a single base. Further, the amino acid sequence translated by the base sequence completely matched the amino acid sequence of the rat EP1 receptor registered as an NCBI accession number NP_037232. Therefore, it was confirmed that the cloned gene sequence was a base sequence of the rat EP1 receptor and the obtained amino acid sequence was that of the rat EP1 receptor. The pcDNA3.1 D/V5-His-TOPO (registered trademark) to which the nucleic acid shown in SEQ ID NO. 5 had been inserted was taken as a rat EP1-expressing vector.
(2) Preparation of Rat EP1 Receptor-Expressing Cells
COS-1 cells (Dainippon Sumitomo Pharma Co., Ltd.) were cultured until it reached confluence in an incubator at 37° C. under a 5% CO2 gas condition, using a D-MEM liquid medium (high glucose and L-glutamine contained, Invitrogen Corporation) to which a penicillin-streptomycin solution (Invitrogen Corporation, final concentration: 100 U/mL as benzylpenicillin; 100 μg/mL as streptomycin) as an antibiotic, MEM nonessential amino acids (Invitrogen Corporation, final Concentration: 0.1 mM), and fetal calf serum (Sanko Junyaku Co., Ltd., final concentration: 10%) were added.
(2-2) COS-1 Cell Subculture
The cells that had reached confluence were stripped with 0.05% trypsin/0.53 mM EDTA 4Na (Invitrogen Japan K. K.) and resuspended in the above liquid medium. The resuspended cells were diluted and cultured in the above liquid medium at a spread ratio from 1:4 to 1:8.
(2-3) Preparation of Cells for Introduction of Rat EP1-Expressing Vector
The cells that had reached confluence were stripped with 0.05% trypsin/0.53 mM EDTA.4Na, and resuspended in a D-MEM liquid medium (high glucose and L-glutamine contained, Invitrogen Corporation) to which an MEM nonessential amino acid (final concentration: 0.1 mM) and fetal calf serum (final concentration: 10%) were added. In each well of a Poly D-lysine-coated 96-well microplate (BD BioCoat (registered trademark), Nippon Becton Dickinson Company, Ltd.), this resuspended cell suspension culture was prepared to be 5×10^4 cells/well in 100 μL of the liquid medium, and seeded thereon. After seeding, the cells were cultured in an incubator at 37° C. under a 5% CO2 gas condition. At a point when the cells for introduction of a rat EP1-expressing vector were adhered (about 2 hours after seeding), introduction of the rat EP1-expressing vector was carried out in the following order.
(2-4) Introduction of Rat EP1-Expressing Vector
For introduction of the rat EP1-expressing vector, Lipofectamine 2000 (Invitrogen Japan K. K.) was used. […]

[3] = Method A (Fluo-4 NW, FlexStation)
[4] = Method B (Calcium kit II Fluo 4, FDSS 7000)

SMILES	pIC50 [2, 3]	pIC50 [2, 4]	Bladder Contraction Inhibition Rate (%) 15 Minutes [1] [%]	Bladder Contraction Inhibition Rate (%) [1] [%]
COc1ccc2c(Cc3cccc(C(=O)O)n3)c(-c3ccccc3)[nH]c2c1 [Example 4-1, 6-(6-methoxy-2-phenyl-1H-indol-3-ylmethyl)pyridine-2-carboxylic acid]	8.00	–	90.1	94.2
COc1ccc2c(Cc3cccc(C(=O)O)c3)c(-c3ccccc3)[nH]c2c1 [Example 4-2, 3-(6-methoxy-2-phenyl-1H-indol-3-ylmethyl)benzoic acid]	7.49	–	78.3	80.4
COc1ccc2c(Cc3cccc(C(=O)O)n3)c(-c3ccsc3)[nH]c2c1 [Example 11-1, 6-(6-methoxy-2-thiophen-3-yl-1H-indol-3-ylmethyl)pyridine-2-carboxylic acid]	7.96	–	86.1	76.8
COc1ccc2c(Cc3cccc(C(=O)O)n3)c(-c3cccc(F)c3)[nH]c2c1 [Example 11-5, 6-[2-(3-fluorophenyl)-6-methoxy-1H-indol-3-ylmethyl]pyridine-2-carboxylic acid]	–	7.85	79.7	81.9
COc1ccc2c(Cc3cccc(C(=O)O)n3)c(-c3csc(C)c3)[nH]c2c1 [Example 11-20, 6-[6-methoxy-2-(5-methylthiophen-3-yl)-1H-indol-3-ylmethyl]pyridine-2-carboxylic acid]	7.59	–	81.4	82.9
CCOc1cc2[nH]c(-c3ccsc3)c(Cc3cccc(C(=O)O)n3)c2cc1C [Example 16-93, 6-(6-ethoxy-5-methyl-2-thiophen-3-yl-1H-indol-3-ylmethyl)pyridine-2-carboxylic acid]	–	7.34	–	–
COc1cc2[nH]c(C(C)(C)C)c(Cc3cccc(C(=O)O)n3)c2cc1F [Example 16-97, 6-(2-tert-butyl-5-fluoro-6-methoxy-1H-indol-3-ylmethyl)pyridine-2-carboxylic acid]	–	7.49	–	–
COc1cc2[nH]c(C(C)(C)C)c(Cc3cccc(C(=O)O)n3)c2cc1C [Example 16-98, 6-(2-tert-butyl-6-methoxy-5-methyl-1H-indol-3-ylmethyl)pyridine-2-carboxylic acid]	–	7.33	–	–
Cc1cc2c(Cc3cccc(C(=O)O)n3)c(-c3ccccc3)[nH]c2cc1C1CC1 [Example 16-100, 6-(6-cyclopropyl-5-methyl-2-phenyl-1H-indol-3-ylmethyl)pyridine-2-carboxylic acid]	–	7.36 and 7.59	–	–
Cc1cc2c(Cc3cccc(C(=O)O)n3)c(-c3ccsc3)[nH]c2cc1C1CC1 [Example 16-102, 6-(6-cyclopropyl-5-methyl-2-thiophen-3-yl-1H-indol-3-ylmethyl)pyridine-2-carboxylic acid]	–	7.31	–	–

Now from value to compound, other results behind:

pIC50 [2, 3]	pIC50 [2, 4]	SMILES	Bladder Contraction Inhibition Rate (%) 15 Minutes [1] [%]	Bladder Contraction Inhibition Rate (%) [1] [%]
–	7.59	COc1cc2c(Cc3cccc(C(=O)O)n3)c(-c3ccoc3)[nH]c2cc1Cl [Example 16-105, 6-(6-chloro-2-furan-3-yl-5-methoxy-1H-indol-3-ylmethyl)pyridine-2-carboxylic acid]	–	–
–	7.40	CCC(C)c1[nH]c2cc(OC)c(Cl)cc2c1Cc1cccc(C(=O)O)n1 (stereo not shown) [Example 16-107, 6-(2-sec-butyl-5-chloro-6-methoxy-1H-indol-3-ylmethyl)pyridine-2-carboxylic acid]	–	–
–	7.72	COc1cc2c(Cc3cccc(C(=O)O)n3)c(-c3ccsc3)[nH]c2cc1C [Example 16-108, 6-(5-methoxy-6-methyl-2-thiophen-3-yl-1H-indol-3-ylmethyl)pyridine-2-carboxylic acid]	–	–
–	7.46	COc1cc2[nH]c(C(C)C)c(Cc3cccc(C(=O)O)n3)c2cc1Cl [Example 16-109, 6-(5-chloro-2-isopropyl-6-methoxy-1H-indol-3-ylmethyl)pyridine-2-carboxylic acid]	–	–
–	7.41	COc1cc2[nH]c(C(C)C)c(Cc3cccc(C(=O)O)n3)c2cc1F [Example 18-1, 6-(5-fluoro-2-isopropyl-6-methoxy-1H-indol-3-ylmethyl)pyridine-2-carboxylic acid]	–	–
